Key:
Assay in all cases: relative viability (nuclei count vs DMSO), 5 days (fraction); higher = more cells survive
[1] = compound: CC1=CC(=CC=C1)NC2=NC(=CS2)C3=CC=NC=C3 + CS(=O)(=O)N1CCN(Cc2cc3nc(-c4cccc5[nH]ncc45)nc(N4CCOCC4)c3s2)CC1 [Pictilisib] (partner 1 µM)
Summary of the method: (§1)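 Dosing by pin tool came one day after lung cancer cell lines were seeded in 1536-well plates, using either one drug or a fixed anchor-drug dose plus five library-drug doses (not always all listed) in √10 steps. After 5 days, nuclei were counted on 4× images. Relative viability is treated-well nuclei count divided by vehicle-well nuclei count, and values are medians of duplicate plates.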

[2] = compound: Cc1ccc(NC(=O)c2ccc(CN3CCN(C)CC3)cc2)cc1Nc1nc(-c2cccnc2)cs1 [Masitinib] + N=C(N)NC(=N)NCCc1ccccc1 [Phenformin] (partner 250 µM)
Summary of the method: as §1

[3] = compound: CC1=CC(=CC=C1)NC2=NC(=CS2)C3=CC=NC=C3 + NC(=O)Nc1cc(-c2cccc(F)c2)sc1C(=O)N[C@H]1CCCNC1 [AZD7762] (partner 0.2 µM)
Summary of the method: as §1

[4] = compound: CC1=CC(=CC=C1)NC2=NC(=CS2)C3=CC=NC=C3 + CC(=O)Nc1cccc(-n2c(=O)n(C3CC3)c(=O)c3c(Nc4ccc(I)cc4F)n(C)c(=O)c(C)c32)c1 [Trametinib] (partner 0.02 µM)
Summary of the method: as §1

Row | Cell Line | relative viability ([1]; first compound 0.08 µM) | relative viability ([1]; first compound 0.253 µM) | relative viability ([1]; first compound 0.8 µM) | relative viability ([1]; first compound 2.53 µM) | relative viability ([1]; first compound 8 µM) | relative viability ([2]; first compound 0.01 µM) | relative viability ([2]; first compound 0.03162 µM) | relative viability ([2]; first compound 0.1 µM) | relative viability ([2]; first compound 0.3162 µM) | relative viability ([2]; first compound 1 µM) | relative viability ([3]; first compound 0.08 µM) | relative viability ([3]; first compound 0.253 µM) | relative viability ([3]; first compound 0.8 µM) | relative viability ([3]; first compound 2.53 µM) | relative viability ([3]; first compound 8 µM) | relative viability ([4]; first compound 0.08 µM) | relative viability ([4]; first compound 0.253 µM) | relative viability ([4]; first compound 0.8 µM) | relative viability ([4]; first compound 2.53 µM) | relative viability ([4]; first compound 8 µM)
1 | LOU-NH91 | 0.482 | 0.382 | 0.464 | 0.44 | 0.468 | 0.656 | 0.606 | 0.683 | 0.54 | 0.605 | 0.615 | 0.631 | 0.714 | 0.761 | 0.468 | 0.704 | 0.734 | 0.721 | 0.754 | 0.728
2 | NCI-H3122 | 0.648 | 0.632 | 0.667 | 0.727 | 0.83 | – | 0.396 | – | 0.315 | 0.312 | 0.946 | 1.01 | 1.04 | 1.04 | 0.96 | 0.204 | 0.25 | 0.307 | 0.321 | 0.414
3 | LCLC-97TM1 | – | – | 0.282 | 0.207 | 0.198 | – | 0.458 | 0.407 | 0.492 | 0.446 | 0.338 | 0.292 | 0.379 | 0.246 | 0.376 | 0.185 | 0.214 | 0.157 | 0.178 | 0.185
4 | NCI-H647 | – | 0.289 | 0.388 | 0.317 | 0.231 | 0.549 | 0.521 | 0.526 | 0.57 | 0.584 | 0.379 | 0.372 | 0.558 | 0.382 | 0.414 | 0.408 | 0.379 | 0.387 | 0.424 | 0.279
5 | NCI-H838 | 0.382 | 0.334 | 0.4 | 0.288 | 0.289 | 0.45 | 0.498 | 0.521 | 0.508 | 0.569 | 0.812 | 0.924 | 0.85 | 0.928 | 0.829 | 0.446 | 0.458 | 0.443 | 0.372 | 0.407
6 | H3255 | 0.535 | 0.552 | 0.542 | 0.526 | 0.408 | 0.388 | 0.277 | 0.374 | 0.315 | 0.407 | 0.936 | 0.902 | 0.866 | 0.665 | 0.765 | 0.597 | 0.602 | 0.569 | 0.585 | 0.403
7 | NCI-H1793 | – | 0.326 | 0.357 | 0.22 | 0.264 | 0.329 | 0.357 | 0.405 | 0.349 | 0.262 | 0.366 | 0.487 | 0.522 | 0.789 | 0.407 | 0.451 | 0.353 | 0.348 | 0.345 | 0.394
8 | LXF-289 | 0.714 | 0.75 | 0.733 | 0.715 | 0.74 | 0.461 | 0.514 | 0.477 | 0.522 | 0.451 | 1.04 | 1.12 | 1.04 | 1.2 | 0.964 | 0.639 | 0.674 | 0.648 | 0.739 | 0.606
9 | HCC-827 | 0.72 | 0.875 | 1.12 | 0.895 | 0.812 | 0.395 | 0.433 | 0.382 | 0.411 | 0.318 | 0.352 | 0.418 | 0.53 | 0.216 | 0.28 | 0.497 | 0.529 | 0.564 | 0.542 | 0.53
10 | LK-2 | 0.572 | 0.569 | 0.853 | – | 0.674 | 0.481 | 0.347 | 0.423 | 0.535 | 0.43 | – | 0.429 | 0.555 | 0.36 | 0.618 | 0.817 | 0.806 | 0.951 | 0.772 | 1.33
11 | HCC-366 | 0.146 | 0.11 | 0.132 | 0.157 | 0.121 | – | 0.59 | – | 0.572 | 0.575 | 0.32 | 0.322 | 0.266 | 0.24 | 0.128 | 0.357 | 0.273 | 0.183 | 0.214 | 0.168
12 | BEN | 0.543 | 0.528 | 0.585 | 0.446 | 0.543 | 0.288 | – | 0.268 | 0.272 | 0.253 | 0.641 | 0.614 | 0.662 | 0.566 | 0.659 | 0.82 | 1.16 | 0.99 | 0.994 | 0.898
13 | NCI-H2347 | 0.583 | 0.685 | 0.434 | 0.665 | 0.578 | 0.391 | 0.402 | 0.333 | 0.374 | 0.327 | 0.613 | 0.731 | 0.699 | 0.778 | 0.72 | 0.289 | 0.309 | 0.256 | 0.29 | 0.265
14 | NCI-H1395 | 0.569 | 0.602 | 0.531 | 0.627 | 0.697 | 0.42 | 0.442 | 0.473 | 0.47 | 0.424 | 0.401 | – | 0.393 | 0.352 | 0.336 | 0.939 | – | 0.964 | 0.724 | 0.898
15 | 201T | 0.547 | 0.537 | 0.598 | 0.565 | 0.602 | 0.362 | 0.409 | 0.373 | 0.471 | 0.44 | 0.811 | 0.79 | 0.777 | 0.865 | 0.618 | 0.75 | 0.76 | 0.76 | 0.778 | 0.659
16 | NCI-H358 | 0.289 | 0.345 | 0.307 | 0.381 | 0.38 | 0.316 | 0.346 | 0.359 | 0.363 | 0.327 | – | 0.594 | 0.532 | 0.521 | 0.542 | 0.121 | 0.141 | 0.133 | 0.142 | 0.136
17 | NCI-H727 | 0.26 | 0.287 | 0.313 | 0.343 | 0.375 | 0.641 | 0.636 | 0.5 | 0.616 | 0.44 | 0.669 | – | 0.745 | – | 0.507 | 0.422 | – | 0.439 | – | 0.405

From the supplement of paper PMC10307832
